Measurements reported in PubChem BioAssay AID248 (DTP/NCI, 2004).
“And” between values parts separate entries of the source, which are not always exact repeats. Equal values may be shown once. Inconclusive results and toxic doses are left out. No stated cut-off is given here; in the data, active means T/C of 150% or more; inactive means T/C below 125%.

System: L1210 leukemia ip in BDF1 mice, survival T/C
Assay: NCI In Vivo Anticancer Drug Screen. Data for tumor model L1210 Leukemia (intraperitoneal) in B6D2F1 (BDF1) mice
Conditions: endpoint: mean survival time, higher = longer survival
In short: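 Antitumor effect is assessed in tumor-bearing animals. Survival in the compound arm is compared with a vehicle-dosed control arm and expressed as their quotient.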

[1] = dose: 100.0 mg/kg/injection, schedule: Q04DX002 (ip), vehicle: saline with Tween-80
[2] = dose: 200.0 mg/kg/injection, schedule: Q04DX002 (ip), vehicle: saline with Tween-80
[3] = dose: 400.0 mg/kg/injection, schedule: Q04DX002 (ip), vehicle: saline with Tween-80
[4] = dose: 100.0 mg/kg/injection, schedule: Q01DX009 (ip), vehicle: other
[5] = dose: 200.0 mg/kg/injection, schedule: Q01DX009 (ip), vehicle: other
[6] = dose: 400.0 mg/kg/injection, schedule: Q01DX009 (ip), vehicle: other
[7] = dose: 50.0 mg/kg/injection, schedule: Q01DX009 (ip), vehicle: Klucel (hydroxypropylcellulose) (HPC)
[8] = dose: 100.0 mg/kg/injection, schedule: Q01DX009 (ip), vehicle: Klucel (hydroxypropylcellulose) (HPC)
[9] = dose: 200.0 mg/kg/injection, schedule: Q01DX009 (ip), vehicle: Klucel (hydroxypropylcellulose) (HPC)
[10] = dose: 100.0 mg/kg/injection, schedule: Q01DX001 (ip), vehicle: saline
[11] = dose: 200.0 mg/kg/injection, schedule: Q01DX001 (ip), vehicle: saline
[12] = dose: 400.0 mg/kg/injection, schedule: Q01DX001 (ip), vehicle: saline
[13] = dose: 100.0 mg/kg/injection, schedule: Q04DX003 (ip), vehicle: Klucel (hydroxypropylcellulose) (HPC)
[14] = dose: 200.0 mg/kg/injection, schedule: Q04DX003 (ip), vehicle: Klucel (hydroxypropylcellulose) (HPC)
[15] = dose: 400.0 mg/kg/injection, schedule: Q04DX003 (ip), vehicle: Klucel (hydroxypropylcellulose) (HPC)
[16] = dose: 50.0 mg/kg/injection, schedule: Q01DX001 (ip), vehicle: saline
[17] = dose: 100.0 mg/kg/injection, schedule: Q01DX009 (ip), vehicle: saline with Tween-80
[18] = dose: 200.0 mg/kg/injection, schedule: Q01DX009 (ip), vehicle: saline with Tween-80
[19] = dose: 100.0 mg/kg/injection, schedule: Q04DX003 (ip), vehicle: saline with Tween-80
[20] = dose: 400.0 mg/kg/injection, schedule: Q04DX003 (ip), vehicle: saline with Tween-80

Measured: T/C

CCC(C)SC1=NC(N)=NC2=NC=NC21 (stereo not drawn)
inactive: dose: 50.0 mg/kg/injection, schedule: Q04DX003 (ip), vehicle: carboxymethylcellulose (CMC) 118 % of control | dose: 100.0 mg/kg/injection, schedule: Q04DX003 (ip), vehicle: carboxymethylcellulose (CMC) 122 % of control

O=C(O)c1c(O)c2cc([N+](=O)[O-])ccc2oc1=O
inactive: dose: 100.0 mg/kg/injection, schedule: Q01DX001 (ip), vehicle: carboxymethylcellulose (CMC) 89 % of control | [1] 95 % of control and 111 % of control | dose: 200.0 mg/kg/injection, schedule: Q01DX001 (ip), vehicle: carboxymethylcellulose (CMC) 103 % of control | [2] 114 % of control | dose: 400.0 mg/kg/injection, schedule: Q01DX001 (ip), vehicle: carboxymethylcellulose (CMC) 100 % of control | [3] 115 % of control

Cc1ccc(N2C(=O)CC(Sc3ccccc3N)C2=O)cc1 (stereo not drawn)
inactive: [4] 114 % of control | dose: 100.0 mg/kg/injection, schedule: Q04DX003 (ip), vehicle: saline 86 % of control | [5] 110 % of control | [6] 93 % of control | dose: 400.0 mg/kg/injection, schedule: Q04DX003 (ip), vehicle: saline 86 % of control

C=CCSc1nccnc1C
inactive: [7] 100 % of control | [8] 103 % of control | [9] 110 % of control

COc1cccc(C(=O)O)c1OC
inactive: dose: 100.0 mg/kg/injection, schedule: Q04DX003 (ip), vehicle: saline sonified 95 % of control | dose: 200.0 mg/kg/injection, schedule: Q04DX003 (ip), vehicle: saline sonified 95 % of control | dose: 400.0 mg/kg/injection, schedule: Q04DX003 (ip), vehicle: saline sonified 97 % of control

CC(Oc1ccccc1)C(=O)NC(=S)Nc1cc(Cl)ccc1Cl (stereo not drawn)
inactive: dose: 100.0 mg/kg/injection, schedule: Q01DX001 (ip), vehicle: other 93 % of control | [4] 94 % of control and 89 % of control | dose: 100.0 mg/kg/injection, schedule: Q04DX002 (ip), vehicle: other 119 % of control and 90 % of control | dose: 200.0 mg/kg/injection, schedule: Q01DX001 (ip), vehicle: other 88 % of control | [5] 96 % of control and 89 % of control | dose: 200.0 mg/kg/injection, schedule: Q04DX002 (ip), vehicle: other 94 % of control and 102 % of control | [6] 88 % of control | dose: 400.0 mg/kg/injection, schedule: Q04DX002 (ip), vehicle: other 102 % of control

CC1(C)N=C(N)N=C(N)N1c1ccc(CNC(=O)Nc2ccc(S(=O)(=O)F)cc2)c(Cl)c1
inactive: dose: 45.0 mg/kg/injection, schedule: Q01DX009 (ip), vehicle: saline 111 % of control | dose: 67.0 mg/kg/injection, schedule: Q01DX009 (ip), vehicle: saline 120 % of control

COc1ccc(C(=O)C(C)CN2CCOCC2)cc1 (stereo not drawn)
inactive: [10] 102 % of control | [11] 105 % of control | [12] 102 % of control

COc1cc2nc3cc([N+](=O)[O-])ccc3c(Cl)c2cc1OC
inactive: [8] 96 % of control | [13] 97 % of control | [9] 88 % of control | [14] 98 % of control | [15] 103 % of control

O=C1OC(/C=C/c2ccccc2)=NC/1=C\c1ccc(O)cc1
inactive: [1] 104 % of control | [2] 93 % of control | [3] 93 % of control

Nc1nc(N)c(N=C/C=C\c2ccc([N+](=O)[O-])cc2)c(-c2ccccc2)n1
inactive: [16] 113 % of control | [10] 107 % of control | [11] 91 % of control | [12] 103 % of control

C/C=C(/C(=O)O)c1ccccc1
inactive: [13] 109 % of control | [14] 88 % of control | [15] 94 % of control

Cc1cccc(OC(=O)Nc2ccc(Cl)cc2)c1
inactive: dose: 100.0 mg/kg/injection, schedule: Q01DX001 (ip), vehicle: saline with Tween-80 93 % of control | [17] 89 % of control | dose: 100.0 mg/kg/injection, schedule: Q04DX002 (ip), vehicle: Klucel (hydroxypropylcellulose) (HPC) 88 % of control | [1] 100 % of control and 92 % of control | dose: 200.0 mg/kg/injection, schedule: Q01DX001 (ip), vehicle: saline with Tween-80 90 % of control | [18] 93 % of control | dose: 200.0 mg/kg/injection, schedule: Q04DX002 (ip), vehicle: Klucel (hydroxypropylcellulose) (HPC) 98 % of control | [2] 107 % of control and 90 % of control | dose: 400.0 mg/kg/injection, schedule: Q01DX001 (ip), vehicle: saline with Tween-80 90 % of control | dose: 400.0 mg/kg/injection, schedule: Q04DX002 (ip), vehicle: Klucel (hydroxypropylcellulose) (HPC) 109 % of control | [3] 113 % of control and 114 % of control

Cc1coc(NS(=O)(=O)c2ccc(N=Nc3c(N)nc(N)nc3N)cc2)c1C
inactive: [10] 97 % of control | [11] 94 % of control | [12] 97 % of control

Cc1ccccc1NC(=S)N(C)C
inactive: dose: 25.0 mg/kg/injection, schedule: Q01DX009 (ip), vehicle: Klucel (hydroxypropylcellulose) (HPC) 103 % of control | dose: 25.0 mg/kg/injection, schedule: Q04DX003 (ip), vehicle: Klucel (hydroxypropylcellulose) (HPC) 98 % of control | [7] 104 % of control | dose: 50.0 mg/kg/injection, schedule: Q04DX003 (ip), vehicle: Klucel (hydroxypropylcellulose) (HPC) 91 % of control | [8] 103 % of control | [13] 95 % of control and 103 % of control

NNC(=O)c1ccc([N+](=O)[O-])cc1
inactive: dose: 25.0 mg/kg/injection, schedule: Q01DX009 (ip), vehicle: saline with Tween-80 97 % of control | dose: 50.0 mg/kg/injection, schedule: Q01DX009 (ip), vehicle: saline with Tween-80 92 % of control | [17] 95 % of control | [19] 95 % of control

Clc1cccc2ccc(-c3cc4ccccc4s3)nc12
inactive: [16] 102 % of control | [10] 101 % of control | [11] 101 % of control | [12] 106 % of control

NC(=O)c1ccccc1NC(=O)Nc1ccccc1C(F)(F)F
inactive: [8] 98 % of control | [9] 98 % of control | dose: 400.0 mg/kg/injection, schedule: Q01DX009 (ip), vehicle: Klucel (hydroxypropylcellulose) (HPC) 100 % of control

CSc1ccc(NC(=O)CCCc2ccc(N(CCCl)CCCl)cc2)cc1
inactive: dose: 4.0 mg/kg/injection, schedule: Q12HX018 (ip), vehicle: other 103 % of control | dose: 6.0 mg/kg/injection, schedule: Q12HX018 (ip), vehicle: other 108 % of control | dose: 8.0 mg/kg/injection, schedule: Q12HX018 (ip), vehicle: other 115 % of control

CC(C)(O)C(O)CC1=C(O)c2ccccc2C(=O)C1=O (stereo not drawn)
inactive: dose: 100.0 mg/kg/injection, schedule: Q01DX001 (ip), vehicle: water 106 % of control | dose: 200.0 mg/kg/injection, schedule: Q01DX001 (ip), vehicle: water 97 % of control | dose: 400.0 mg/kg/injection, schedule: Q01DX001 (ip), vehicle: water 93 % of control

CC(C)CCCC(C)C1CCC2C3CC=C4CC(C5C(=O)NC(=O)NC5=O)CCC4(C)C3CCC12C (stereo not drawn)
inactive: dose: 12.5 mg/kg/injection, schedule: Q04DX003 (ip), vehicle: saline with Tween-80 96 % of control | dose: 25.0 mg/kg/injection, schedule: Q04DX003 (ip), vehicle: saline with Tween-80 96 % of control | dose: 50.0 mg/kg/injection, schedule: Q04DX003 (ip), vehicle: saline with Tween-80 87 % of control | [20] 88 % of control

O=Cc1nc2ccccc2cc1CCl
inactive: dose: 75.0 mg/kg/injection, schedule: Q01DX001 (ip), vehicle: saline 92 % of control

OC(O)C(F)(F)F
inactive: [17] 109 % of control | [19] 111 % of control | [18] 121 % of control | dose: 200.0 mg/kg/injection, schedule: Q04DX003 (ip), vehicle: saline with Tween-80 104 % of control | dose: 400.0 mg/kg/injection, schedule: Q01DX009 (ip), vehicle: saline with Tween-80 97 % of control | [20] 105 % of control

C[n+]1ccc(Cl)c2ccc(Cl)cc21
inactive: dose: 10.0 mg/kg/injection, schedule: Q01DX001 (ip), vehicle: saline 100 % of control | dose: 20.0 mg/kg/injection, schedule: Q01DX001 (ip), vehicle: saline 102 % of control | dose: 40.0 mg/kg/injection, schedule: Q01DX001 (ip), vehicle: saline 102 % of control
